Like-named read-outs stand apart in the source and are kept apart here.

We go through three substances from US20060002994A1, “Responsive liposomes for ultrasonic drug delivery” (priority 2004, published 2006).

Series [1] is described as follows: Estimated partition coefficients (K) of detergents into the lipid membrane. Format: physicochemical. The following applies: estimated as inverse of CMC; P-105 at 37° C. An excerpt:
Critical micelle concentrations (CMC) and estimated partition coefficients (K) of several detergents assayed. For membrane-solubilizing detergents, the product of the CMC and the partition coefficient is of order unity.

Series [2] is described as follows: Critical micelle concentrations (CMC) of detergents. The format is physicochemical. The following applies: source not stated. From the text:
RESULTS: Some ethylene glycol-containing surfactants can cause enhanced release of a self-quenching fluorescent marker dye from liposomes under 20 kHz ultrasound stimulation.[19] In FIG. 4, the rate of fluorescence increase caused by release of liposomally-entrapped calcein dye is shown in liposomes treated with five different surfactants. The total surfactant concentrations were normalized to the CMCs (Table 1, below). CMCs for TRITON® X-100, TRITON® X-405, PLURONIC® P-105 [20] and TWEEN® 80 were obtained from the literature. All surfactants, except DPPE-PEG2000, were dissolved in the buffer prior to the introduction of the liposomes. DPPE-PEG2000 was incorporated into the liposomes prior to extrusion. For all surfactants except TRITON® X-100, the rate of fluorescence increase in the absence of ultrasound was <0.04% per second, i.e., off the bottom of the figure. (At the higher TRITON® X-100 concentrations, the spontaneous leakage was >0.11% per second.) All of the surfactants induced about a 10-15 fold increase in the response to 20 kHz ultrasound. More remarkably, the surfactants reached maximal effectiveness at concentrations of about 1% of the critical micelle concentration. […] Furthermore, the different surfactants plateau at different levels. […]

For series [3] the following is noted: obtained from the literature; P-105 at 37° C.; cited from earlier work.

Turning to TWEEN ® 20, the K (estimated partition coefficient) in series [1] is 12500 M⁻¹. In series [2], this substance had a CMC of 80 µM.

In the case of TWEEN ® 80, the K (estimated partition coefficient) in series [1] is 10000 M⁻¹. In addition, the CMC in series [3] was 100 µM.

Take “1,2-dipalmitoyl-sn-glycero-3-phosphoethanolamine-N-methoxy(polyethylene glycol)2000 [DPPE-PEG2000, reference compound]”: the K (estimated partition coefficient) in series [1] is 14300 M⁻¹. The substance further returned a CMC in series [2] of 70 µM.
